The values that follow come from patent publication US12139487B2, “Compounds and uses thereof” (Foghorn Therapeutics Inc., priority 2022, dated 2024).

pIC50: −log10 of the molar value.

One experiment has as its target T1, BRM (Homo sapiens, UniProt P51531).
T1 construct: made in house; host or cells: High Five insect cells
Kind of experiment: ATPase catalytic activity assay (ADP-Glo), BRM. The experiment is classed as biochemical. The conditions noted are these: Table 10; for Ratio (BRG1 IC50 (μM) divided by BRM IC50 (μM)): ATPase assay, selectivity BRG1/BRM; for pIC50: ATPase catalytic activity assay (ADP-Glo). The essentials:
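ADP-Glo luminescence measures ADP produced by BRM ATPase (30 nM) during 1 h at room temperature. ATP is 400 μM, with 20 nM salmon sperm DNA as cofactor. Buffer: 20 mM Tris pH 8, 20 mM MgCl2, 50 mM NaCl, 0.1% Tween-20, 1 mM DTT.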
A general note: ADP-Glo first removes unused ATP, then detects ADP through luciferase.

For another experiment, the target named is T2, BRG-1 (Homo sapiens, UniProt P51532).
T2 construct: made in house; host or cells: High Five insect cells
T2 sequence (P51532 whole entry): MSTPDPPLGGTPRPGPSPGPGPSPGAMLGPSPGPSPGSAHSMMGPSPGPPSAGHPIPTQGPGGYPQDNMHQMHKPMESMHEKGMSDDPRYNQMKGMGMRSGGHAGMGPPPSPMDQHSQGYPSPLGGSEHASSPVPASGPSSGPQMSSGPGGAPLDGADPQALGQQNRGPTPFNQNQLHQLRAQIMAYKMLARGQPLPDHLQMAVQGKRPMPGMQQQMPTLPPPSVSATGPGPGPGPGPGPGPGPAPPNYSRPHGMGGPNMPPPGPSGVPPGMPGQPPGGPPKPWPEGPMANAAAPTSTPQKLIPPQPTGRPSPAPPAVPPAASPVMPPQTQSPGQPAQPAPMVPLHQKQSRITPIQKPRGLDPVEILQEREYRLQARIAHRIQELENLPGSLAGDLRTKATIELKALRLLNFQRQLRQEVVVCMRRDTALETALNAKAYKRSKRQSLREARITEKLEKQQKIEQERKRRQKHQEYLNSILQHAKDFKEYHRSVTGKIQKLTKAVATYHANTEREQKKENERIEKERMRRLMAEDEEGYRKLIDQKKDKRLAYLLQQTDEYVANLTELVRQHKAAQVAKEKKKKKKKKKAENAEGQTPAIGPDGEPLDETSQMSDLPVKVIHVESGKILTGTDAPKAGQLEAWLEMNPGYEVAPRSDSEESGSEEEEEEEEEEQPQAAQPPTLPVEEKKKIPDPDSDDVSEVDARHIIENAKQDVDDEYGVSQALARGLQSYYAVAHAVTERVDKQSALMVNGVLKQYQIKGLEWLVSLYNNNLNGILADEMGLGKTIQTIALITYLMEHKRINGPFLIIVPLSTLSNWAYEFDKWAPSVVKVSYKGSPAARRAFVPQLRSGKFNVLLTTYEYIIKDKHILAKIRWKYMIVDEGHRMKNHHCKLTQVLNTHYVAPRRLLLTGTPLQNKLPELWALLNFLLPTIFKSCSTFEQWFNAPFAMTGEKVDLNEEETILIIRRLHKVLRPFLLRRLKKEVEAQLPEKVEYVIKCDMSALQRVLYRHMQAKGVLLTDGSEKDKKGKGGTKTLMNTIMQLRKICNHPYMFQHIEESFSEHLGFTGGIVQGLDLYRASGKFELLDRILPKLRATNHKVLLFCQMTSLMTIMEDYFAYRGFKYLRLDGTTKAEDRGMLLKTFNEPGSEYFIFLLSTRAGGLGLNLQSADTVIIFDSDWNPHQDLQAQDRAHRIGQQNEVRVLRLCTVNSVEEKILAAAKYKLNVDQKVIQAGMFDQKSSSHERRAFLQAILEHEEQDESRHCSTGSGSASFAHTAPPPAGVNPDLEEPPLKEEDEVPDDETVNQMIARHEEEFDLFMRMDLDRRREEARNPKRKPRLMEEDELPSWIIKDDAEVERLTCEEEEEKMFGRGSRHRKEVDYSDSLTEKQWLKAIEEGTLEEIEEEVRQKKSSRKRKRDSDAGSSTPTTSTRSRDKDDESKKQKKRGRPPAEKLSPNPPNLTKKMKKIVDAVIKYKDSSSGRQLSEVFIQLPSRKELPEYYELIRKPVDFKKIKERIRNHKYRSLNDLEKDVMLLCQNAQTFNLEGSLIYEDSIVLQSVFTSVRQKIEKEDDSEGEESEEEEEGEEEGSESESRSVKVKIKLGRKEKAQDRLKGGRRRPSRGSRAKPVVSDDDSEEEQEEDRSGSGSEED
As to the kind of experiment: ATPase catalytic activity assay (ADP-Glo), BRG-1. The format is biochemical. The settings on record: Table 10, read-out: BRG1 IC50. The essentials:
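ADP produced by BRG-1 was quantified by luciferase luminescence. A 60 min room-temperature ADP-to-ATP conversion followed a 40 min ATP-depletion step.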

T1 sequence (P51531 whole entry): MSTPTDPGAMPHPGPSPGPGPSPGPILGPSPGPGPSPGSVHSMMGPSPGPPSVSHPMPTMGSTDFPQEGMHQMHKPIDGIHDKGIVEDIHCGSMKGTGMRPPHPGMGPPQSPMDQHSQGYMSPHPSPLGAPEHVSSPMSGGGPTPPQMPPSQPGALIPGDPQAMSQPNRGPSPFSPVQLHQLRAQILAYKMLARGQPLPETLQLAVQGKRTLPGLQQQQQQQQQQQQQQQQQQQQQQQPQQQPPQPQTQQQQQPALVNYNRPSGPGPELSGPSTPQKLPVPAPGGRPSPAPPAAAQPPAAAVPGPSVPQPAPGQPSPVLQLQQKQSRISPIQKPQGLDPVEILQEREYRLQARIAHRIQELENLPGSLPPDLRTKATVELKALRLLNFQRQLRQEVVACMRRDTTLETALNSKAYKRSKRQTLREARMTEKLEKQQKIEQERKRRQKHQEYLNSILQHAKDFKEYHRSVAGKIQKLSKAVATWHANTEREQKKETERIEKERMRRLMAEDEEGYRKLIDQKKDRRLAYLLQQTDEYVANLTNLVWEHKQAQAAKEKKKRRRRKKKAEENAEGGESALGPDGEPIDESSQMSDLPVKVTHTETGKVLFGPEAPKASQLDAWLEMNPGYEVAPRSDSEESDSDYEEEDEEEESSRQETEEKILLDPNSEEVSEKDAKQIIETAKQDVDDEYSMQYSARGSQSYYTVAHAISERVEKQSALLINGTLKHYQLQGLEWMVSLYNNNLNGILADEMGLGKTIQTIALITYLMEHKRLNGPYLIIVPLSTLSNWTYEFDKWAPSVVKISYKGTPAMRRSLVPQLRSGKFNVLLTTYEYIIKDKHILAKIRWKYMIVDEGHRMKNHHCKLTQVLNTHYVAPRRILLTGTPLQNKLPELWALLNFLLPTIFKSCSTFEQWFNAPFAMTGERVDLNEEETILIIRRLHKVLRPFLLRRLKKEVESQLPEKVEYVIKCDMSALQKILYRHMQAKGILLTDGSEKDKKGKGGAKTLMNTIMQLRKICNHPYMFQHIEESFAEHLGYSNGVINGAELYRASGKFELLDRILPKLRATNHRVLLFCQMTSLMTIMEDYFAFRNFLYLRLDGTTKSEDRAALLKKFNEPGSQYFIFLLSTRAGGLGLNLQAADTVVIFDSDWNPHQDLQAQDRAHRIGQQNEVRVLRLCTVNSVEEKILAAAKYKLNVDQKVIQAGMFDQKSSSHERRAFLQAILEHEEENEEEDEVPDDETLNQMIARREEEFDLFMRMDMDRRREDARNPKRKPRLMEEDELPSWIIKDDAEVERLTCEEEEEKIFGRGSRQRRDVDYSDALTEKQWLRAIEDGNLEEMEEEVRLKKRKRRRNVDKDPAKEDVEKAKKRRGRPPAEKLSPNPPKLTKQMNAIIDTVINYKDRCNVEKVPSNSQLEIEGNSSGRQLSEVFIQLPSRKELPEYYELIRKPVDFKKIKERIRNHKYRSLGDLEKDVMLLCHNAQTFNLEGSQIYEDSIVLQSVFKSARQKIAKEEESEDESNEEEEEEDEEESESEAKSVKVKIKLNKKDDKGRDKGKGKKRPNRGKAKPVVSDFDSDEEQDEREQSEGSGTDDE

In the case of `O=C(NCc1cc2nc(N3CCOc4ccc([C@H]5C[C@@H]5F)nc43)ccc2cn1)c1cc(F)c2c(c1)S(=O)(=O)[C@@H](F)COC2` [Compound 132], on BRM, the “Ratio (BRG1 IC50 (μM) divided by BRM IC50 (μM))” value worked out at 17.90 and the pIC50 – broadly, −log10 of the IC50, conventionally taken in molar units – is 8.35. For the same molecule, the pIC50 on BRG-1 was 7.11.
As to `COc1cnc2c(c1)CCCN2c1ccc2cnc(CNC(=O)c3cc(F)c4c(c3)S(=O)(=O)[C@@H](F)CCO4)cc2n1` [Compound 133], at BRM, the “Ratio (BRG1 IC50 (μM) divided by BRM IC50 (μM))” value turned out to be 18.45 and the pIC50 is 8.35. The pIC50 on BRG-1 was 7.03.
For the molecule `C[C@@H]1CN(c2cccc(-c3ccc4cnc(CNC(=O)c5cc(F)c6c(c5)S(=O)(=O)[C@@H](F)CO[C@@H]6C)cc4n3)n2)C[C@H](C)O1` [Compound 134], on BRM, the “Ratio (BRG1 IC50 (μM) divided by BRM IC50 (μM))” value is 20.63. Also, the pIC50 at BRM was 8.34; on BRG-1, 7.01.
In the case of `[2H]C([2H])([2H])Oc1nc(C(F)F)ccc1-c1ccc2cnc(CNC(=O)c3cc(F)c4c(c3)S(=O)(=O)[C@@H](F)CCO4)cc2n1` [Compound 135], on BRM, the “Ratio (BRG1 IC50 (μM) divided by BRM IC50 (μM))” value was found to be 23.88 and the negative logarithm of the IC50 (pIC50) is 8.34. In addition, the negative logarithm of the IC50 (pIC50) at BRG-1 was 6.96.
Consider `COc1nc(C(F)F)ccc1-c1ccc2cnc(CNC(=O)c3cc(F)c4c(c3)S(=O)(=O)[C@@H](F)CCO4)c(F)c2n1` [Compound 136], for which, on BRM, the “Ratio (BRG1 IC50 (μM) divided by BRM IC50 (μM))” value worked out at 13.12. The negative-log IC50 (pIC50) against BRM is 8.34; on BRG-1, 7.13.
With `COc1nc(C(F)F)ccc1-c1ccc2cnc(CNC(=O)c3cc(F)c4c(c3)S(=O)(=O)[C@@H](F)COC4)cc2c1` [Compound 137], at BRM, the “Ratio (BRG1 IC50 (μM) divided by BRM IC50 (μM))” value is given as 21.45 and the pIC50 was 8.33. Moreover, the pIC50 at BRG-1 is 7.00.
With `O=C(NCc1cc2nc(N3CCOc4cc(N5C[C@H](F)[C@@H](F)C5)cnc43)ccc2cn1)c1cc(F)c2c(c1)S(=O)(=O)[C@@H](F)CCO2` [Compound 138], on BRM, the “Ratio (BRG1 IC50 (μM) divided by BRM IC50 (μM))” value is recorded as 18.95 and the pIC50 was 8.33. Moreover, the pIC50 at BRG-1 was 7.05.
In the same order, the values of `O=C(NCc1cc2nc(N3CCOc4cc(N5CC(F)C5)cnc43)ccc2cn1)c1cc(F)c2c(c1)S(=O)(=O)[C@@H](F)CCO2` [Compound 139] are 24.09, 8.33 and 6.83.
Consider `[2H]C1([2H])OC[C@H](F)S(=O)(=O)c2cc(C(=O)NCc3cc4nc(N5CCOc6ccc(C(F)F)nc65)ccc4cn3)cc(F)c21` [Compound 140], for which the “Ratio (BRG1 IC50 (μM) divided by BRM IC50 (μM))” value on BRM is recorded as 17.66. Further, the pIC50 at BRM was 8.33; at BRG-1, 7.08.
On to `O=C(NCc1cc2cc(N3CCOc4cc(C5CC5)cnc43)ccc2cn1)c1cc(F)c2c(c1)S(=O)(=O)[C@@H](F)CCO2` [Compound 141], for which, on BRM, the “Ratio (BRG1 IC50 (μM) divided by BRM IC50 (μM))” value is 16.19 and the pIC50 is 8.33. Moreover, the pIC50 on BRG-1 was 7.12.
As to `C[C@H]1[C@H](F)CN1c1cnc2c(c1)OCCN2c1ccc2cnc(CNC(=O)c3cc(F)c4c(c3)S(=O)(=O)[C@@H](F)CCO4)cc2n1` [Compound 142], the “Ratio (BRG1 IC50 (μM) divided by BRM IC50 (μM))” value at BRM is given as 19.04. Further, the negative-log IC50 (pIC50) against BRM is 8.33; on BRG-1, 7.05.
For `COc1nc(-c2ccc3cnc(CNC(=O)c4cc(F)c5c(c4)S(=O)(=O)[C@@H](F)CCO5)cc3n2)ccc1C(F)F` [Compound 143] the same measures were 21.43, 8.33 and 7.01.
On to `COc1ccc(-c2ccc3cnc(CNC(=O)c4cc(F)c5c(c4)S(=O)(=O)[C@@H](F)CCO5)cc3n2)nc1[C@@H]1CC1(F)F` [Compound 144], for which, on BRM, the “Ratio (BRG1 IC50 (μM) divided by BRM IC50 (μM))” value came to 25.02 and the pIC50 is 8.32. For the same molecule, the pIC50 on BRG-1 is 6.96.
In the same order, the values of `O=C(NCc1cc2nc(N3CCOc4cc(CC(F)F)cnc43)ccc2cn1)c1cc(F)c2c(c1)S(=O)(=O)[C@@H](F)CCO2` [Compound 145] are 16.05, 8.32 and 7.11.
In the case of `O=C(NCc1cc2nc(N3CCOc4cc(C56CC(C5)C6)cnc43)ccc2cn1)c1cc(F)c2c(c1)S(=O)(=O)[C@@H](F)COC2` [Compound 146], at BRM, the “Ratio (BRG1 IC50 (μM) divided by BRM IC50 (μM))” value came to 15.71 and the pIC50 is 8.32. In addition, the pIC50 on BRG-1 is 7.14.
In the same order, the values of `COCc1ccnc2c1OCCN2c1ccc2cnc(CNC(=O)c3cc(F)c4c(c3)S(=O)(=O)[C@@H](F)CCO4)cc2n1` [Compound 147] are 11.98, 8.32 and 7.24.
As to `C[C@@H]1CN(c2cccc(-c3ccc4cnc(CNC(=O)c5cc(Cl)c6c(c5)S(=O)(=O)[C@@H](F)CCO6)cc4n3)n2)C[C@H](C)O1` [Compound 148, (R)-9-chloro-N-((2-(6-((2S,6R)-2,6-dimethylmorpholino)pyridin-2-yl)-1,6-naphthyridin-7-yl)methyl)-4-fluoro-3,4-dihydro-2H-benzo[b][1,4]oxathiepine-7-carboxamide 5,5-dioxide], on BRM, the “Ratio (BRG1 IC50 (μM) divided by BRM IC50 (μM))” value turned out to be 17.59 and the pIC50 is 8.31. Moreover, the pIC50 at BRG-1 was 7.08.
Turning to `COCCN(C)c1cnc2c(c1)CCCN2c1ccc2cnc(CNC(=O)c3cc(F)c4c(c3)S(=O)(=O)[C@@H](F)CCO4)cc2n1` [Compound 149], at BRM, the “Ratio (BRG1 IC50 (μM) divided by BRM IC50 (μM))” value is 13.78 and the negative logarithm of the IC50 (pIC50) was 8.31. For the same molecule, the pIC50 on BRG-1 was 7.17.
With `COc1nc(C(C)(F)F)ccc1-c1ccc2cnc(CNC(=O)c3cc(F)c4c(c3)S(=O)(=O)[C@@H](F)CCO4)cc2n1` [Compound 150], at BRM, the “Ratio (BRG1 IC50 (μM) divided by BRM IC50 (μM))” value is reported as 21.42 and the negative logarithm of the IC50 (pIC50) is 8.31. Further, the negative-log IC50 (pIC50) on BRG-1 was 6.92.
`CCOc1nc(C(F)F)ccc1-c1ccc2cnc(CNC(=O)c3cc(F)c4c(c3)S(=O)(=O)[C@@H](F)CCO4)cc2n1` [Compound 151]: at BRM, the “Ratio (BRG1 IC50 (μM) divided by BRM IC50 (μM))” value was 16.49 and the pIC50 is 8.31. In addition, the negative logarithm of the IC50 (pIC50) on BRG-1 was 7.12.
As to `CO[C@@H]1C[C@H]1c1cnc2c(c1)OCCN2c1ccc2cnc(CNC(=O)c3cc(F)c4c(c3)S(=O)(=O)[C@@H](F)CCO4)cc2n1` [Compound 152], the “Ratio (BRG1 IC50 (μM) divided by BRM IC50 (μM))” value on BRM turned out to be 11.35. The figures for the pIC50 on BRM and on BRG-1 were 8.30 and 7.28, respectively.
As to `COc1cnc2c(c1)OCCN2c1ccc2cnc(CNC(=O)c3cc(F)c4c(c3)S(=O)(=O)[C@@H](F)CCO4)cc2c1` [Compound 153], at BRM, the “Ratio (BRG1 IC50 (μM) divided by BRM IC50 (μM))” value is on record as 13.92 and the pIC50 is 8.30. The pIC50 on BRG-1 was 7.16.
`CCOCc1cnc2c(c1)OCCN2c1ccc2cnc(CNC(=O)c3cc(F)c4c(c3)S(=O)(=O)[C@@H](F)CCO4)cc2n1` [Compound 154]: on BRM, the “Ratio (BRG1 IC50 (μM) divided by BRM IC50 (μM))” value amounted to 15.21 and the pIC50 is 8.30. Besides, on BRG-1, the pIC50 is 7.17.
For `O=C(NCc1cc2nc(-c3csnc3OC(F)F)ccc2cn1)c1cc(F)c2c(c1)S(=O)(=O)[C@@H](F)CCO2` [Compound 155], at BRM, the “Ratio (BRG1 IC50 (μM) divided by BRM IC50 (μM))” value was found to be 19.80 and the pIC50 was 8.30. In addition, the pIC50 at BRG-1 is 7.06.
On to `O=C(NCc1cc2nc(N3CCOc4ccc([C@@H]5C[C@H]5F)nc43)ccc2cn1)c1cc(F)c2c(c1)S(=O)(=O)[C@@H](F)CCO2` [Compound 156], for which, at BRM, the “Ratio (BRG1 IC50 (μM) divided by BRM IC50 (μM))” value stood at 23.13 and the negative logarithm of the IC50 (pIC50) is 8.30. Besides, the negative-log IC50 (pIC50) at BRG-1 is 7.01.
In the same order, the values of `CC(C)c1cnc2c(c1)OCCN2c1ccc2cnc(CNC(=O)c3cc(F)c4c(c3)S(=O)(=O)[C@@H](F)CCO4)cc2n1` [Compound 157] are 18.45, 8.29 and 7.01.
For `COc1cc(F)ccc1-c1ccc2cnc(CNC(=O)c3cc(F)c4c(c3)S(=O)(=O)[C@@H](F)CCO4)cc2n1` [Compound 158] the same measures were 17.08, 8.29 and 7.06.
For `O=C(NCc1cc2nc(N3CCOc4cc(C(F)F)cnc43)ccc2cn1)c1cc(F)c2c(c1)S(=O)(=O)[C@@H](F)CCO2` [Compound 159], the “Ratio (BRG1 IC50 (μM) divided by BRM IC50 (μM))” value on BRM stood at 14.72. For the same molecule, the negative logarithm of the IC50 (pIC50) is 8.29 against BRM and 7.00 at BRG-1.
`Cc1cc(C(=O)NCc2cc3nc(N4CCOc5cc(N6CC[C@H]6C)cnc54)ccc3cn2)cc2c1OCC[C@H](F)S2(=O)=O` [Compound 160]: on BRM, the “Ratio (BRG1 IC50 (μM) divided by BRM IC50 (μM))” value was 17.82 and the negative-log IC50 (pIC50) is 8.29. Moreover, the negative logarithm of the IC50 (pIC50) at BRG-1 was 7.12.
Regarding `Cc1cc2c(-c3ccc4cnc(CNC(=O)c5cc(F)c6c(c5)S(=O)(=O)[C@@H](F)CCO6)cc4n3)cccc2n1C` [Compound 161], at BRM, the “Ratio (BRG1 IC50 (μM) divided by BRM IC50 (μM))” value was found to be 9.63 and the negative-log IC50 (pIC50) was 8.29. Further, the negative-log IC50 (pIC50) at BRG-1 is 7.31.
As for `C[C@H]1OC[C@H](F)S(=O)(=O)c2cc(C(=O)NCc3cc4nc(N5CCOc6cc(C7CC7)cnc65)ccc4cn3)ccc21` [Compound 162], the “Ratio (BRG1 IC50 (μM) divided by BRM IC50 (μM))” value on BRM turned out to be 17.63. The pIC50 against BRM was 7.95; on BRG-1, 6.66.
For the molecule `[2H]C1([2H])OC([2H])([2H])[C@H](F)S(=O)(=O)c2cc(C(=O)NCc3cc4nc(N5CCOc6ccc(C(F)F)nc65)ccc4cn3)cc(F)c21` [Compound 163], the results for the negative logarithm of the IC50 (pIC50) at BRM and at BRG-1 were 8.28 and 6.94, respectively.
On to `O=C(NCc1cc2nc(N3CCOc4ccc([C@H]5C[C@@H]5F)nc43)ccc2cn1)c1cc(F)c2c(c1)S(=O)(=O)[C@@H](F)CCO2` [Compound 164], for which, at BRM, the “Ratio (BRG1 IC50 (μM) divided by BRM IC50 (μM))” value was found to be 32.00 and the pIC50 is 8.28. In addition, the negative-log IC50 (pIC50) on BRG-1 is 6.76.
